# In a melting point compilation (Tetko et al.):
row,melting point [°C],Compound
1,60 to 62,O=C(CCl)NCCC1=CCCCC1
2,130 to 132,CSc1nc(-c2ccccc2)c[nH]1
3,93 to 95,COc1ccccc1-c1cc(N)on1
4,227 to 229,Cc1nn(Cc2ccc(F)cc2)c2sc(C(=O)O)cc12
5,131 to 133,Cc1cc(S(N)(=O)=O)ccc1[N+](=O)[O-]
6,58 to 60,O=Cc1ccc(-c2ccc(Cl)cc2C(F)(F)F)s1
7,189 to 191,CC(=O)Nc1cc(C)c(C)cc1[N+](=O)[O-]
8,215 to 217,Cc1cc(=O)c(C(=O)O)nn1-c1ccccc1Cl
9,328 to 330,Cc1sc2nc(S)[nH]c(=O)c2c1C
10,134 to 136,Cn1ccnc1C(N)=S
11,233 to 235,Cn1c(=O)[nH]cc(C(=O)O)c1=O
12,157 to 159,O=C(O)c1ccccc1NS(=O)(=O)c1cccc(C(F)(F)F)c1
13,229 to 231,Cc1cc(/C=C(\C#N)C(=O)O)c(C)n1CCC(C)C
14,159 to 161,Fc1cc2nc[nH]c2cc1F
15,51 to 53,COC(=O)CCOc1ccc(N)cc1
16,168 to 170,CC(Cl)C(=O)Nc1ccc2c(c1)OCO2 (stereo unspecified)
17,170 to 175,Cn1nc(C(=O)O)ccc1=O
18,203 to 205,CCn1nc(C(=O)O)ccc1=O
19,71 to 73,CC(C)(NS(C)(=O)=O)C(=O)O
20,169 to 173,CCC1(CC)NC(=O)N(CC(=O)O)C1=O
21,109 to 111,CC1=NN(C)C(=O)C1
22,98 to 100,CC(Cl)C(=O)Nc1ccc2c(c1)OC1(CCCCC1)O2 (stereo unspecified)
23,372 to 374,NS(=O)(=O)c1ccc2[nH]c(=O)c(=O)[nH]c2c1
24,215 to 217,Nc1cc(N2C(=O)CCC2=O)ccc1F

row,melting point [°C],Compound
1,176 to 178,CC(C)C1(C)NC(=O)NC1=O (stereo unspecified)
2,108 to 110,NN1CCN(C(c2ccccc2)c2ccccc2)CC1
3,157 to 159,O=C(NO)c1ccccc1C(F)(F)F
4,243 to 245,CS(=O)(=O)c1nnc(N)[nH]1
5,89 to 91,Nc1cccc(-c2nc(C3CC3)no2)c1
6,249 to 251,CC(C)(C)N1C(=O)CC(C(=O)O)C1c1ccc(Cl)c(F)c1 (stereo unspecified)
7,34 to 38,c1ccc2c(c1)NCCS2
8,167 to 169,Nc1ccc(N2CCNC(=O)C2)cc1
9,280 to 282,NNC(=O)c1ccc(O)c(Cl)c1
10,180 to 183,COc1ccc(N(C(C)=O)c2nc(C=O)cs2)cc1
11,72 to 74,O=Cc1ccc(OCc2ccc(Cl)cc2)cc1
12,205 to 207,CC(=O)c1c(C)[nH]c(C(=O)O)c1C
13,233 to 235,Cc1c(NS(=O)(=O)c2ccc(N)c(N)c2)c(=O)n(-c2ccccc2)n1C
14,207 to 209,O=C1c2ccc([N+](=O)[O-])cc2C(=O)N1c1ccc(F)cc1
15,141 to 143,CCOC(=O)C1=NN(c2ccc(Cl)cc2)C(=O)C1
16,142 to 144,Nc1cc(Cl)ccc1S(N)(=O)=O
17,242 to 244,O=C1CCc2c(O)cccc21
18,183 to 185,Cc1c(Br)cc(C(=O)O)cc1S(=O)(=O)Cl
19,202 to 204,CC(=O)Nc1c(C)n[nH]c1C
20,46 to 48,CN(c1ccc(CN)cc1)S(C)(=O)=O
21,147 to 149,COC(=O)c1nnc2ccccc2c1Cl
22,199 to 201,CN1C(=O)c2cccc(N)c2C1=O
23,139 to 141,Cn1cc(C=CC(=O)O)c2ccccc21
24,49 to 51,Cc1cc(C=O)nc(N2CCCCC2)n1

row,melting point [°C],Compound
1,156 to 158,O=C(NC1CCNCC1)C1CCOCC1
2,116 to 118,Cc1ccc(C(=O)C(Br)CC(=O)O)cc1 (stereo unspecified)
3,182 to 184,O=C(O)c1cc(-c2ccccc2F)nc2onc(C3CC3)c12
4,69 to 71,CC(Cl)c1cn(-c2ccccc2)nn1 (stereo unspecified)
5,164 to 166,CC(C)(C)c1nc(C#N)c(NN)o1
6,89 to 91,O=Cc1sc(N2CCCCC2)nc1Cl
7,51 to 53,O=S1(=O)CCN1
8,131 to 133,CC1=NN(c2ccccc2)C(=O)C1=NO
9,148 to 150,Cc1nn(-c2ccccc2)c(C)c1SCC(=O)O
10,104 to 106,Nc1ncon1
11,43 to 45,Cc1cc(Cl)nc2c(C(C)C)cccc12
12,72 to 74,CC(=O)c1cc(Cl)cc(CCl)c1O
13,177 to 179,Cc1cc(C(=O)NN)c2ccccc2n1
14,71 to 73,CCCCCCCCCCCC(=O)c1ccc(O)cc1
15,144 to 146,CC(=O)NCCc1ccc(S(N)(=O)=O)s1
16,268 to 270,O=C(O)c1cc2[nH]nnc2cc1F
17,122 to 124,O=C(O)c1ccn(-c2ccccc2F)n1
18,198 to 200,O=c1[nH]c(-c2cccc(Br)c2)no1
19,103 to 105,CCNC(=O)c1ccc(F)cc1Br
20,161 to 163,Cc1c(N)cccc1C(=O)Nc1ccccc1
21,188 to 190,O=c1cc(O)nc(S)n1-c1ccc(Cl)cc1
22,143 to 145,Nc1ccc(F)c(NS(=O)(=O)c2ccccc2)c1
23,89 to 91,Nc1c(-c2ccccc2)nn(-c2ccccc2)c1N
24,119 to 122,Cn1c(C=O)nc2ccccc21

row,melting point [°C],Compound
1,119 to 121,N#Cc1cccc(CN2C(=O)CCc3ccccc32)c1
2,65 to 69,ClCc1cnn(-c2ccccc2)c1
3,106 to 108,Nc1cc(CC2CCCCC2)no1
4,158 to 160,COc1ccc(C(=O)CSc2nc(C)n[nH]2)cc1Br
5,130 to 132,CC1CN(c2ccc(NC(=O)OCC(F)(F)F)cc2F)CC(C)O1 (stereo unspecified)
6,130 to 132,CS(=O)(=O)CCOc1ccc(Br)cc1
7,220 to 222,O=C(O)Cn1ccccc1=O
8,172 to 174,CCCC1(c2ccccc2)NC(=O)NC1=O (stereo unspecified)
9,190 to 192,Cc1ccc(NC(N)=O)cc1F
10,183 to 185,O=C(O)CCc1nc2ccccc2c(=O)n1C1CC1
11,81 to 83,COC(=O)c1ncccc1F
12,189 to 191,O=C(O)c1ccccc1NCc1cccnc1
13,129 to 131,O=C(CCl)N(Cc1ccc(F)cc1)C12CC3CC(CC(C3)C1)C2
14,200 to 202,COc1cc(I)c(C(=O)O)cc1OC
15,77 to 79,CC(C)NC(=O)NN
16,185 to 187,O=C(CCl)N1CCc2cc(S(=O)(=O)N3CCCCC3)ccc21
17,196 to 198,Cc1cccc(Nc2nnc(S)s2)c1
18,79 to 81,O=S(=O)(Cl)c1c(Cl)ccnc1Cl
19,160 to 162,Cc1ccc(/C=C/C(=O)O)s1
20,168 to 170,CN1CCN(S(=O)(=O)c2ccc(NN)nc2)CC1
21,144 to 146,c1cnc(N2CCN(c3ncccn3)CC2)nc1
22,93 to 95,COc1ccc(S(=O)(=O)Nc2ccccc2Cl)cc1N
23,83 to 87,CCOC(=O)c1c(N)sc2c1CCN(CC)C2
24,132 to 134,COc1cc2nc(-c3ccccc3)nc(Cl)c2cc1OC

row,melting point [°C],Compound
1,64 to 66,N#Cc1c(Cl)nsc1Cl
2,164 to 166,Oc1cccc2[nH]ncc12
3,119 to 121,COc1ccc(S(=O)(=O)NC2CC2)cc1N
4,159 to 163,CCOC(=O)c1[nH]c2c(c1C)C(=O)CC(C)(C)C2
5,55 to 57,ClCc1csc(-c2ccccc2Cl)n1
6,95 to 97,COc1ccc(N)cc1OCc1cccnc1
7,169 to 171,CC1CNC(=O)N1c1cccc(N)c1 (stereo unspecified)
8,78 to 80,O=C(O)Cc1cccc(OCCCOc2ccccc2)c1
9,178 to 180,Cn1c(C(=O)O)cc(Cl)c1Cl
10,39 to 41,C=CC(CC(=O)O)c1ccccc1 (stereo unspecified)
11,127 to 129,COc1ccc(NS(=O)(=O)c2ccc(C)c(N)c2)cc1
12,177 to 179,NS(=O)(=O)N1CCC(C(=O)O)CC1
13,169 to 171,Nc1cnn(-c2ncccn2)c1
14,175 to 177,Nc1sc2c(c1-c1nc3ccccc3[nH]1)CCCC2
15,179 to 181,O/N=C/c1c(Cl)nc(Cl)n1-c1ccccc1
16,154 to 156,O=C1CCCc2cc(C(=O)CCl)ccc2N1
17,74 to 76,O=C(c1ccc(F)cc1)N1CCNCC1
18,155 to 157,CCc1ncncc1C(=O)O
19,45 to 47,CCC(C)C(O)C(=O)O (stereo unspecified)
20,257 to 259,O=C1CCc2cc(C(=O)CCl)c(F)cc2N1
21,79 to 81,COC(=O)c1ccc(Br)c(C)c1N
22,266 to 268,O=C(O)/C=C/C1=C(Cl)c2ccccc2S1(=O)=O
23,109 to 111,CCc1cc(O)ncc1Br
24,65 to 67,CCOCCOc1c(N)cccc1Cl

row,melting point [°C],Compound
1,108 to 110,NNC(=O)Cn1cnc2ccccc21
2,95 to 97,Fc1ccc(-c2cncc(Cl)n2)cc1
3,188 to 190,Nc1nccc(-c2cccnc2)n1
4,170 to 172,COC(=O)COc1ccc(C(=O)O)cc1OC
5,172 to 174,NC(=O)c1cccc2c1CCCN2
6,286 to 288,CCn1c(S)nc2ccsc2c1=O
7,125 to 127,CC1CCCC(NC(=O)CCl)C1C (stereo unspecified)
8,158 to 160,O=C(O)c1ccc(OCC(F)F)nc1
9,172 to 174,O=C1CCCN1Cc1nnc(S)o1
10,97 to 99,O=C(Nc1ccccc1F)C1CSCN1 (stereo unspecified)
11,114 to 116,Cc1oc(C(=O)O)cc1S(=O)(=O)Cl
12,321 to 323,O=C(O)c1cc2cc(Cl)c(Cl)cc2[nH]1
13,53 to 55,CC(C)c1nn(-c2ccccc2)c(Cl)c1C=O
14,171 to 175,CC(C)(C)NC(N)=S
15,255 to 257,N#Cc1ccccc1/C=C/C(=O)O
16,225 to 227,Cc1cc(F)c2c(c1)C(=O)C(=O)N2
17,179 to 181,O=C(O)C1=NN(Cc2ccccc2)C(=O)CC1
18,165 to 167,O=C(O)[C@@H]1CCCN1C(=O)c1ccccn1
19,151 to 153,CC(C(N)=NO)n1ccnc1 (stereo unspecified)

row,Compound,melting point [°C]
1,CC(Cl)C(=O)NC(=O)NC1CC1 (stereo unspecified),88 to 90
2,c1cnc2[nH]cc(C3CCNCC3)c2c1,159 to 161
3,CC(=O)c1c(O)cc(C)oc1=O,109 to 111
4,O=C(O)CCCOc1ccccc1Cl,84 to 86
5,ClCc1nnc(-c2ccco2)o1,81 to 83
6,CCOCCCNC(=O)CCl,25 to 27
7,Clc1ccc(CNC2=NCCS2)cc1,106 to 108
